This is an account of results in a melting point compilation (Tetko et al.; mined from patent text by program, amines drawn as free bases though some values may be those of a salt).

For `COc1ccc([N+](=O)[O-])cc1NC(C)=O`, the melting point was in the range of 172 to 177 °C.
Then `O=C1Nc2ccccc2C(c2ccccc2)N1CCO` (configuration not stated), with 141 °C.
The same measure for `N#Cc1cccc(-n2cc(-c3ccccn3)cn2)n1`: 260 to 261 °C; for `CCOCCS(=O)(=O)N1CC[C@@H](C(=O)N(C)Cc2cc(C(F)(F)F)cc(C(F)(F)F)c2)[C@H](c2ccc(F)cc2C)C1` (relative stereo): 151 to 153 °C; for `O=C(Nc1ccc(N2CCN(C(=O)Nc3ccc(OCCO)cc3Cl)CC2)cc1)Nc1ccccc1F`: 213 to 217 °C.
In turn, `CC1CC(C)(C)C(CNc2ccnc3cc(Cl)ccc23)C1N` (configuration not stated) gave a melting point of more than 250 °C.
In turn, `O=C1CC(c2cccc(-n3ccnc3)c2)=Nc2cc(CO)c(C#Cc3ccccc3)cc2N1` gave a melting point of 227 °C.
As to `CCOP(=O)(CCc1ccnc(-c2nc(=O)c3ccccc3s2)c1)OCC`, the melting point was 102 to 103 °C.
The same measure for `Cn1cnc(COc2nn3c(-c4ccccc4)nnc3cc2-c2ccccc2)c1`: 199 to 202 °C.
As for `Clc1ccc(N2CCN(c3ccccn3)CC2)nn1`, the melting point stood at 195 °C.
The same measure for `Nc1cc(-n2cc(C(=O)O)c(=O)c3cc(F)c(N4CC(N)C4)nc32)c(F)cc1F`: 168 to 170 °C; for `COc1ccc(-c2c3c(cc4ccc(OC)c(OC)c24)C(=O)NC3=O)cc1`: 288 to 290 °C.
Take `CN(C)C=C(C(=O)c1ccccc1)c1ccccc1`: the melting point lay in the range of 128 to 133 °C.
The molecule `C#CCN(Cc1ccc2nc[nH]c(=O)c2c1)c1ccc(C(C)=O)cc1` had a melting point of 197 to 199 °C.
Regarding `CC1C(Cc2ccccc2)C(=O)N(Cc2ccccc2)c2ccccc2N1C(=O)CN1C(=O)c2ccccc2C1=O` (configuration not stated), the melting point fell in the range of 213 to 214 °C.
`Cc1cccc(Oc2cccc(C#CC(C)N(O)C(N)=O)c2)n1` (configuration not stated) gave a melting point of 133 to 135 °C.
`N#CCCSCc1csc(NC(=N)N)n1` displayed a melting point of 127 to 128 °C.
`CNC(=O)C(CC1CCCCC1)NC(=O)Nc1n[nH]c(=S)s1` (configuration not stated) registered a melting point of 246 to 247 °C.
The same measure for `Cc1c(NC(=O)c2ccc(-c3ccccc3)cc2F)ccc2cc(CN3CCCCC3)cnc12`: 187 to 188 °C; for `Cc1cn(-c2cc(NC(=O)c3ccc(C)c(C#Cc4ccc(NC5CCC5)nn4)c3)cc(C(F)(F)F)c2)cn1`: 223 to 225 °C; for `COc1ccc(S(=O)(=O)N2C(=O)C(c3ccccc3OC)(N3CCC[C@H]3C(=O)OC(C)(C)C)c3cc(Cl)ccc32)c(OC)c1` (some centres not stated): 136 °C.
Then `C=CCN(CC=C)C(=O)n1cnc(S(=O)(=O)CCOCC)n1`, with 62 to 63 °C; and `Clc1cccc(Nc2nccc(-c3ccncc3)n2)c1`, with 167 to 168 °C; and `CC[C@@H]1CCCN1CCc1cc2cc(-c3ccc(C#N)cc3)ccc2o1`, with 147 °C.
Molecule `N=C(Nc1ccc(Cl)cc1)Nc1ncccc1OCc1ccc(F)cc1F` displayed a melting point of 182 to 184 °C.
The same measure for `Cc1cc([C@@H](O)[C@@H](C)N2CCC(O)(c3ccc(C(F)(F)F)cc3)CC2)cc(C)c1O[Si](C(C)C)(C(C)C)C(C)C` (relative stereo): 177 to 178 °C.
Then `O=C1N=C2CCCCN2C12CCNCC2`, with 220 °C; and `O=C1NC2(NC1=O)Oc1ccccc1O2`, with 202 °C.
The same measure for `CC1(C(=O)O)CCCCC1O` (configuration not stated): 97 °C; for `O=C(O)CCN1Cn2cc(C(=O)O)cc2-c2ccccc21`: 234 to 236 °C.
Consider `O=c1nc(N2CCN(c3ccccc3F)CC2)sc2c([N+](=O)[O-])cc(C(F)(F)F)cc12`, for which the melting point lay within 164 to 168 °C.
As for `CCCCNC(=O)NS(=O)(=O)c1cc(C(F)(F)F)ccc1S(=O)(=O)N(C)C`, the melting point fell in the range of 128 to 130 °C.
The molecule `COC(=O)c1cnc(CNC(=O)c2ccccc2)c2ccccc12` had a melting point of 140 to 142 °C.
The same measure for `CC(=O)NNc1ccc(NCc2ccccc2)cc1`: 118 to 120 °C; for `CCNn1cc(C(=O)O)c(=O)c2cc3c(cc21)OCO3`: 242 °C.
Then `O=C1Nc2ccc(Cl)cc2C(OCC2CC2)(C(F)(F)F)CN1C1CCC1` (configuration not stated), with 156 °C; and `C[C@H](CS(C)(=O)=O)NC(=O)c1c[nH]c2ncc(-c3nn(C)c4cc(Cl)ccc34)nc12`, with 287 to 290 °C; and `O=C(O)CCc1conc1-c1ccc(F)c(Br)c1`, with 151 to 152 °C.
The same measure for `Cc1ccc(C(=O)Nc2cccnc2)c(Nc2ccc3cn[nH]c3c2)n1`: more than 280 °C; for `Cc1c(Cl)nc(Cl)nc1Cl`: 67 to 68 °C.
`CC(=O)Nc1nc(N)nc(-c2ccc(S(=O)(=O)c3ccccc3)cc2)n1` had a melting point of more than 260 °C.
Then `COc1ccc(-c2ccccc2C(SCC(=O)c2ccccc2)C(O)C(N)=O)cc1` (configuration not stated), with 132 to 134 °C; and `NC(=O)CC1CN(Cc2ccccc2)CCN1Cc1ccccc1` (configuration not stated), with 114 °C.
In turn, `O=[N+]([O-])c1ccc(CNc2cccc(S(=O)(=O)O)c2)cc1` gave a melting point of more than 275 °C.
For `COc1ccc(C(=O)NCC[C@@H](O)C(=O)O)cc1`, the melting point stood at 104 °C.
`CC(=O)NC[C@H]1CN(c2ccc(N3C[C@H]4CN(C(=O)CO)C[C@H]4C3)c(F)c2)C(=O)O1`: the melting point is 167 to 168 °C.
The same measure for `C=Cc1ccc(COc2ccc(CSCCC(=O)O)cc2)cc1`: 135 to 136 °C; for `O=C(c1ccc(Cl)cc1)C(Cc1nc[nH]n1)c1ccc(Cl)cc1Cl` (configuration not stated): 109 to 111 °C.
Then `N#Cc1ccc(N(Cc2ccc(OS(N)(=O)=O)c(F)c2)n2cnnc2)cc1-c1ccccc1`, with 198 to 200 °C; and `CCOP(=O)(OCC)OC(=Cc1nccn1C)c1ccccc1`, with 111 to 114 °C; and `COc1ccc(Sc2cc3c(cc2Cl)C=C(C(=O)O)C(C(F)(F)F)O3)cc1` (configuration not stated), with 239 to 242 °C.
Regarding `Cc1cc(OS(=O)(=O)C(F)(F)F)c2cccc(OCc3ccccc3)c2n1`, the melting point was 158 °C.
As for `N#CCc1cccc2c(-c3ccc([N+](=O)[O-])cc3)nccc12`, the melting point was determined as 219 °C.
The same measure for `CCOC(=O)CC(=O)Nc1c(-c2ccccc2)nn2ccccc12`: 160 to 161 °C; for `CC(=O)c1ccc(N)c(Br)c1`: 59 to 62 °C.
`Cc1ccc(C(=O)c2cccnc2C(=O)O)cc1` had a melting point of 168 to 170 °C.
Take `N#Cc1ccc(OCCCCCOc2cccc(-c3cc4ccc(C#N)cc4o3)c2)cc1`: the melting point fell in the range of 138 to 140 °C.
As for `CC(C)=CC(=O)c1sccc1O`, the melting point was in the range of 32 to 33 °C.
The same measure for `CCOC(=O)N(C)C1CCc2c([nH]c3ccccc23)C1` (configuration not stated): 167 to 168 °C.
Then `Fc1ccc(Cn2c(NC3CCN(CCNCCc4c[nH]c5ccccc45)CC3)nc3ccccc32)cc1`, with 170 °C; and `CC(C)c1cc2c(s1)Sc1ccccc1NC2=S`, with 210 °C.
The same measure for `CCCCCCCN(CCCCCSc1nc(-c2ccccc2)c(-c2ccccc2)[nH]1)c1ncnc2nc[nH]c12`: 58 to 60 °C; for `Cc1cc(SC2=C(O)CC(CCC(C)C)(C3CCCC3)OC2=O)c(C(C)(C)C)cc1CO` (configuration not stated): 74 to 77 °C.
Turning to `OCCCc1ccc(OCc2ccccc2)cc1`, the melting point was in the range of 63 to 64 °C.
The same measure for `CSc1nnc(-c2ccc(OCC(O)CNCCOc3ccc(O)c(C(N)=O)c3)cc2)n1C` (configuration not stated): 123 to 125 °C; for `COc1cccc(C=O)c1OS(=O)(=O)c1ccccc1`: 120 to 122 °C; for `Cc1cccc2c1CCN=C2c1ccc(Br)cc1`: 60 to 61.5 °C.
Then `CCCCCCCCCCCCCC(=O)Nc1ccc(Cl)c(NC2=NN(c3c(Cl)cc(Cl)cc3Cl)C(=O)C2SCc2ccccc2)c1` (configuration not stated), with 182 to 185 °C; and `Cc1nc(C)c(Cl)c(NCc2ccc(OCc3ccccc3)cn2)n1`, with 130 to 131 °C.
`CC1(C)Oc2ccc(C#N)cc2[C@@H](N(C(N)=O)c2ccccc2)[C@@H]1O` (relative stereo) gave a melting point of 226 to 227 °C.
The same measure for `CCN1C(=O)c2ccc(N)cc2C1=O`: 169 to 171 °C.
`O=C(NC(CO)CO)c1ccc2cc(C(=O)O)[nH]c2c1` returned a melting point of 240 to 245 °C.
Then `O=[N+]([O-])c1ccc2c(c1)OCC2`, with 71 to 72 °C.
Turning to `Cc1nc2c(N)nc3cccnc3c2n1CC1(O)CCNCC1`, the melting point is more than 260 °C.
The molecule `O=C(O)CCC(=O)c1ccc(CCNS(=O)(=O)c2ccc(Cl)cc2)cc1` came in with a melting point of 152 °C.
Take `Cc1c(Cl)cc([N+](=O)[O-])c(NC(C)C)c1[N+](=O)[O-]`: the melting point lay within 69 to 73 °C.
Then `CCOC(=O)c1c(SC)nc(-c2ccc(SC)cc2)n(-c2ccc(C)cc2)c1=O`, with 153 to 155 °C; and `CCOC(=O)C(Cc1ccc(-c2ccco2)cc1)NC(=O)C1(NC(=O)OC(C)(C)C)CCCC1` (configuration not stated), with 107 to 112 °C; and `CCCCCCCCCCCCCCCCC(C(=O)O)S(C)=O` (configuration not stated), with 93 to 97 °C.
Then `COc1cc(-c2nc3ccccc3[nH]2)cc([N+](=O)[O-])c1O`, with 198 to 200 °C; and `CCCc1c(OCCCOc2cccc3c2CCCC3)ccc2c1OC(CCC(=O)O)(CCC(=O)N1CCCC1)CC2=O` (configuration not stated), with 160 to 164 °C.
The same measure for `CC(=O)N1CC=C(c2cc3c(cc2F)c(=O)c2c(=O)[nH]sc2n3C2CC2)CC1`: 243 to 244 °C; for `CCOCc1nc2c(N)nc3c(c2n1CCCCS(=O)(=O)NC)CCCC3`: 188 to 192 °C; for `CC(=O)CSC1C2=C(CCCC2)C(=O)N1c1ccc(Cl)cc1F` (configuration not stated): 131 to 132 °C.
Molecule `O=C(NC1CCCCC1)Oc1ccc(N=C=S)cc1` showed a melting point of 170 to 173 °C.
Then `CCN1Cc2ccccc2N(CC)C(Nc2nc(Nc3cc4c(cc3OC)CCN(CC(=O)N(C)C)CC4)ncc2Cl)C1` (configuration not stated), with 85 to 90 °C.
Then `Cc1cc(-c2ccc(C(F)(F)F)cc2)nc(-c2cccc(-c3ccc(S(N)(=O)=O)s3)c2)c1`, with 211 °C.

The melting point is the temperature of the solid-liquid transition.
